Source: the supplement of paper PMC10307832

The cell lines below were run with O=C(Nc1cc(C(F)(F)F)cc(C(F)(F)F)c1)c1cc(Cl)ccc1O [IMD-0354] + CC1(C)CCC(c2ccc(Cl)cc2)=C(CN2CCN(c3ccc(C(=O)NS(=O)(=O)c4ccc(N[C@H](CCN5CCOCC5)CSc5ccccc5)c(S(=O)(=O)C(F)(F)F)c4)cc3)CC2)C1 [Navitoclax] (partner 0.5 µM) (assay: relative viability (nuclei count vs DMSO), 5 days (fraction); higher = more cells survive). Conditions: first compound 0.04 µM.
Method in brief: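 One day after seeding in 1536-well plates, lung cancer cell lines were dosed by pin tool. Dosing was either single-drug or a fixed anchor-drug dose plus five library-drug doses (not always all listed) in √10 steps. After 5 days, nuclei were stained in one fix-and-stain step and counted on 4× images, and relative viability is the nuclei count of treated wells over that of vehicle wells, given as the median of duplicate plates.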

Going from HOP-62 to LU99A, the relative viability falls from 1.02 to 0.644.

Going from BEN to HARA, the relative viability rises from 0.0569 to 0.952.

First: HCC-78
Second: NCI-H322M
The relative viability of the first is lower: 0.691 for the first, 1.27 for the second.

Compared with NCI-H2009, A-427 is lower in relative viability: 1.22 for the first, 0.989 for the second.

Compared with NCI-H1734, NCI-H460 is higher in relative viability: 0.905 for the first, 1.21 for the second.

Going from NCI-H2347 to SW 1573, the relative viability rises from 0.818 to 1.15.

Going from NCI-H1793 to 201T, the relative viability rises from 0.356 to 1.27.

Compared with NCI-H1915, HCC-827 is higher in relative viability: 0.708 for the first, 0.983 for the second.

Compared with LXF-289, NCI-H23 is lower in relative viability: 0.927 for the first, 0.893 for the second.

First: NCI-H647
Second: CAL-12T
The relative viability of the first is higher: 1.47 for the first, 1.33 for the second.

Compared with NCI-H1651, EPLC-272H is higher in relative viability: 1.05 for the first, 1.45 for the second.

Going from NCI-H2228 to NCI-H1355, the relative viability rises from 0.738 to 1.03.

Compared with NCI-H3122, NCI-H1437 is higher in relative viability: 1.01 for the first, 1.17 for the second.

Compared with NCI-H1755, NCI-H2023 is higher in relative viability: 1.1 for the first, 1.16 for the second.

Compared with HCC-15, NCI-H1944 is higher in relative viability: 0.659 for the first, 0.962 for the second.

Same assay, conditions: first compound 0.1265 µM

Going from HOP-62 to LU99A, the relative viability falls from 0.976 to 0.808.

Going from BEN to HARA, the relative viability rises from 0.0541 to 1.11.

First: HCC-78
Second: NCI-H322M
The relative viability of the first is lower: 0.761 for the first, 1.23 for the second.

Compared with LCLC-97TM1, NCI-H2009 is higher in relative viability: 0.331 for the first, 1.02 for the second.

First: A-427
Second: NCI-H441
The relative viability of the first is higher: 0.983 for the first, 0.473 for the second.

Compared with NCI-H1734, NCI-H460 is higher in relative viability: 0.86 for the first, 0.977 for the second.

Going from NCI-H2347 to SW 1573, the relative viability rises from 0.838 to 0.948.

First: NCI-H1793
Second: 201T
The relative viability of the first is lower: 0.472 for the first, 1.25 for the second.

Going from NCI-H1915 to HCC-827, the relative viability rises from 0.857 to 0.955.

Going from LXF-289 to NCI-H23, the relative viability falls from 0.88 to 0.814.

Compared with NCI-H647, CAL-12T is lower in relative viability: 1.57 for the first, 1.08 for the second.

Compared with NCI-H1651, EPLC-272H is lower in relative viability: 1.16 for the first, 1 for the second.

Going from NCI-H2228 to NCI-H1355, the relative viability falls from 1.12 to 0.932.

First: NCI-H3122
Second: NCI-H1437
The relative viability of the first is lower: 1.09 for the first, 1.13 for the second.

NCI-H1755 and NCI-H2023 are the same in relative viability: 1.05 for the first, 1.05 for the second.

Going from HCC-15 to NCI-H1944, the relative viability rises from 0.652 to 1.13.

Same assay, conditions: first compound 0.4 µM

Going from HOP-62 to LU99A, the relative viability rises from 0.504 to 0.654.

Compared with BEN, HARA is higher in relative viability: 0.0659 for the first, 0.36 for the second.

First: HCC-78
Second: NCI-H322M
The relative viability of the first is lower: 0.509 for the first, 1.12 for the second.

Going from LCLC-97TM1 to NCI-H2009, the relative viability rises from 0.368 to 0.915.

First: A-427
Second: NCI-H441
The relative viability of the first is higher: 0.654 for the first, 0.38 for the second.

Going from NCI-H1734 to NCI-H460, the relative viability falls from 0.446 to 0.0491.

Going from NCI-H2347 to SW 1573, the relative viability falls from 0.55 to 0.421.

First: NCI-H1793
Second: 201T
The relative viability of the first is lower: 0.391 for the first, 0.77 for the second.

Going from NCI-H1915 to HCC-827, the relative viability rises from 0.412 to 0.892.

Going from LXF-289 to NCI-H23, the relative viability falls from 0.789 to 0.54.

First: NCI-H647
Second: CAL-12T
The relative viability of the first is lower: 0.521 for the first, 0.629 for the second.

Going from NCI-H1651 to EPLC-272H, the relative viability rises from 0.337 to 0.54.

Going from NCI-H2228 to NCI-H1355, the relative viability rises from 0.589 to 0.82.

Going from NCI-H3122 to NCI-H1437, the relative viability falls from 0.829 to 0.443.

Compared with NCI-H1755, NCI-H2023 is lower in relative viability: 0.591 for the first, 0.561 for the second.

For HCC-15, the relative viability was 0.362.

Same assay, conditions: first compound 1.265 µM

First: HOP-62
Second: LU99A
The relative viability of the first is higher: 0.78 for the first, 0.479 for the second.

Compared with BEN, HARA is higher in relative viability: 0.0403 for the first, 0.342 for the second.

First: HCC-78
Second: NCI-H322M
The relative viability of the first is lower: 0.571 for the first, 1.5 for the second.

Compared with LCLC-97TM1, NCI-H2009 is higher in relative viability: 0.322 for the first, 0.642 for the second.

Going from A-427 to NCI-H441, the relative viability falls from 0.546 to 0.164.

Compared with NCI-H1734, NCI-H460 is lower in relative viability: 0.412 for the first, 0.0709 for the second.

Going from NCI-H2347 to SW 1573, the relative viability rises from 0.35 to 0.571.

First: NCI-H1793
Second: 201T
The relative viability of the first is lower: 0.282 for the first, 1 for the second.

First: NCI-H1915
Second: HCC-827
The relative viability of the first is lower: 0.661 for the first, 0.759 for the second.

First: LXF-289
Second: NCI-H23
The relative viability of the first is higher: 0.666 for the first, 0.394 for the second.

First: NCI-H647
Second: CAL-12T
The relative viability of the first is lower: 0.198 for the first, 0.358 for the second.

Going from NCI-H1651 to EPLC-272H, the relative viability rises from 0.052 to 1.06.

Going from NCI-H2228 to NCI-H1355, the relative viability falls from 1.27 to 0.916.

First: NCI-H3122
Second: NCI-H1437
The relative viability of the first is higher: 0.987 for the first, 0.152 for the second.

Compared with NCI-H1755, NCI-H2023 is lower in relative viability: 0.481 for the first, 0.257 for the second.

First: HCC-15
Second: NCI-H1944
The relative viability of the first is lower: 0.297 for the first, 1.01 for the second.

Same assay, conditions: first compound 4 µM

Compared with HOP-62, LU99A is lower in relative viability: 0.295 for the first, 0.148 for the second.

Going from BEN to HARA, the relative viability rises from 0.0444 to 0.131.

Going from HCC-78 to NCI-H322M, the relative viability rises from 0.24 to 0.267.

Going from LCLC-97TM1 to NCI-H2009, the relative viability falls from 0.205 to 0.115.

Going from A-427 to NCI-H441, the relative viability rises from 0.115 to 0.217.

Compared with NCI-H1734, NCI-H460 is lower in relative viability: 0.133 for the first, 0.0241 for the second.

First: NCI-H2347
Second: SW 1573
The relative viability of the first is higher: 0.255 for the first, 0.102 for the second.

Going from NCI-H1793 to 201T, the relative viability rises from 0.246 to 0.752.

Compared with NCI-H1915, HCC-827 is higher in relative viability: 0.219 for the first, 0.293 for the second.

Compared with LXF-289, NCI-H23 is higher in relative viability: 0.0776 for the first, 0.207 for the second.

Going from NCI-H647 to CAL-12T, the relative viability rises from 0.068 to 0.156.

Going from NCI-H1651 to EPLC-272H, the relative viability rises from 0.0654 to 0.25.

Compared with NCI-H2228, NCI-H1355 is lower in relative viability: 0.355 for the first, 0.185 for the second.

First: NCI-H3122
Second: NCI-H1437
The relative viability of the first is lower: 0.155 for the first, 0.244 for the second.

First: NCI-H1755
Second: NCI-H2023
The relative viability of the first is higher: 0.16 for the first, 0.121 for the second.

For HCC-15, the relative viability was 0.166.
